Data on 1 molecule can be found in patent US10688061B2, “Formation of delivery agents targeted to degraded elastic fibers” (priority 2012, dated 2020).

Molecules are shown by their SMILES.

The series has as its system Rat aortic vascular smooth muscle cells. The settings on record: positive control (FIG. 22).

Description: Cells were seeded at 10,000 cells/cm^2. At 70% confluency, cells were incubated with nanoparticles for 4 hours following which cell viability was determined using a LIVE/DEAD Cell Viability assay (Molecular Probes, Grand Island, N.Y.). Cells fluorescing green were considered alive while cells fluorescing red were considered dead. Additionally, proliferation of cells was estimated using the MTT (3-(4,5-Dimethyl-2-thiazolyl)-2,5-diphenyl-2H-tetrazolium bromide) assay. Briefly, 5 mg of MTT (Sigma Aldrich, St. Louis, Mo.) was dissolved in 10 ml of serum-free media and added to cells. After 4 hours, media was carefully aspirated and the insoluble formazan dye was collected with dimethyl sulfoxide (DMSO) (Sigma Aldrich, St, Louis, Mo.). Absorbance was read at 560 nm and normalized to control (no treatment) readings.

As to `CCO` [70% ethanol, ethanol], the Cell death was > 95%.
